The values that follow come from PubChem BioAssay AID328 (DTP/NCI, 2004).

This test has as its system BDF1 mice, P388 leukemia ip, median survival T/C. Briefly: NCI In Vivo Anticancer Drug Screen. Data for tumor model P388 Leukemia (intraperitoneal) in B6D2F1 (BDF1) mice. To be noted: endpoint: median survival time, higher = longer survival. An outline of the steps: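 Antitumour effect was judged in vivo: survival in drug-treated mice, normalised to that of vehicle-dosed controls, gives the reported T/C.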

Where [1] appears, read: dose: 100.0 mg/kg/injection, schedule: Q04DX003 (ip), vehicle: Klucel (hydroxypropylcellulose) (HPC).
The mark [2] stands for this setting: dose: 400.0 mg/kg/injection, schedule: Q04DX003 (ip), vehicle: Klucel (hydroxypropylcellulose) (HPC).
Setting [3] is: dose: 12.5 mg/kg/injection, schedule: Q01DX009 (ip), vehicle: saline.
[4] abbreviates: dose: 25.0 mg/kg/injection, schedule: Q01DX009 (ip), vehicle: saline.
[5] abbreviates: dose: 50.0 mg/kg/injection, schedule: Q01DX009 (ip), vehicle: saline.
Where [6] appears, read: dose: 100.0 mg/kg/injection, schedule: Q01DX009 (ip), vehicle: saline.
The mark [7] stands for this setting: dose: 200.0 mg/kg/injection, schedule: Q01DX009 (ip), vehicle: saline.
[8] abbreviates: dose: 400.0 mg/kg/injection, schedule: Q01DX009 (ip), vehicle: saline.
Setting [9] is: dose: 25.0 mg/kg/injection, schedule: Q04DX003 (ip), vehicle: saline with Tween-80.
The mark [10] stands for this setting: dose: 50.0 mg/kg/injection, schedule: Q04DX003 (ip), vehicle: saline with Tween-80.

SMILES strings stand for the structures. “And” between values parts separate entries of the source, which are not always exact repeats. Identical values can stand only once. Toxic doses and inconclusive results are not listed.

For `COc1cc2c[n+](C)c3c4cc5c(cc4ccc3c2cc1OC)OCO5` (tested in a mixture with another compound), the T/C by setting is: (dose: 1.25 mg/kg/injection, schedule: Q01DX009 (ip), vehicle: water) 124 % of control; (dose: 10.0 mg/kg/injection, schedule: Q01DX009 (ip), vehicle: saline) 163 % of control and 166 % of control; (dose: 10.0 mg/kg/injection, schedule: Q01DX009 (ip), vehicle: water) 160 % of control; (dose: 20.0 mg/kg/injection, schedule: Q01DX009 (ip), vehicle: saline) 172 % of control and 188 % of control and 203 % of control; (dose: 20.0 mg/kg/injection, schedule: Q01DX009 (ip), vehicle: water) 150 % of control; (dose: 40.0 mg/kg/injection, schedule: Q01DX009 (ip), vehicle: saline) 174 % of control and 215 % of control. For the same compound, the T/C was 110 % of control (dose: 40.0 mg/kg/injection, schedule: Q01DX009 (ip), vehicle: water); 172 % of control and 188 % of control (dose: 80.0 mg/kg/injection, schedule: Q01DX009 (ip), vehicle: saline).

In the case of `CCCCc1c(C(=O)OCC)oc(C(=O)OCC)c(CCCC)c1=O`, the T/C (dose: 12.5 mg/kg/injection, schedule: Q04DX003 (ip), vehicle: Klucel (hydroxypropylcellulose) (HPC)) was 99 % of control; the T/C (dose: 25.0 mg/kg/injection, schedule: Q04DX003 (ip), vehicle: Klucel (hydroxypropylcellulose) (HPC)) was 91 % of control; the T/C (dose: 50.0 mg/kg/injection, schedule: Q04DX003 (ip), vehicle: Klucel (hydroxypropylcellulose) (HPC)) is 115 % of control; the T/C under setting [1] was 91 % of control; the T/C under setting [2] was 102 % of control.

With `O=C1C=CC(=O)c2c(O)cccc21`, the T/C is 90 % of control (dose: 1.56 mg/kg/injection, schedule: Q01DX009 (ip), vehicle: saline with Tween-80); 95 % of control (dose: 3.13 mg/kg/injection, schedule: Q01DX009 (ip), vehicle: saline with Tween-80); 95 % of control (dose: 6.25 mg/kg/injection, schedule: Q01DX009 (ip), vehicle: saline with Tween-80).

For the compound `COC1CCC(OC2CC(C3(C)CCC4(CC(O)C(C)C(C(C)/C=C(\C)C(=O)C(C)CC(C)C(=O)O)O4)O3)OC3(OC(C4OC(O)(CO)C(C)CC4C)CC3C)C2C)OC1C` (stereo not drawn), the T/C reads like this: (dose: 62.5 micrograms/kg/injection, schedule: Q01DX009 (ip), vehicle: Klucel (hydroxypropylcellulose) (HPC)) 111 % of control; (dose: 125.0 micrograms/kg/injection, schedule: Q01DX009 (ip), vehicle: Klucel (hydroxypropylcellulose) (HPC)) 97 % of control; (dose: 250.0 micrograms/kg/injection, schedule: Q01DX009 (ip), vehicle: Klucel (hydroxypropylcellulose) (HPC)) 97 % of control; (dose: 500.0 micrograms/kg/injection, schedule: Q01DX009 (ip), vehicle: Klucel (hydroxypropylcellulose) (HPC)) 97 % of control.

As to `CC(CCC/C=C/CCCN(C)C(=N)N)CC(C)C1OC(=O)C(C)C(O)/C=C/C(C)C(O)C(C)C(O)C(C)C(O)CCCC(O)CC2(O)OC(CC(OC(=O)CC(=O)O)CC(O)CC(O)C(C)C(O)/C=C/C=C/C1C)CC(O)C2O` (stereo not drawn), the T/C was 124 % of control (dose: 1.8 mg/kg/injection, schedule: Q01DX009 (ip), vehicle: saline with Tween-80); 90 % of control (dose: 1.82 mg/kg/injection, schedule: Q04DX003 (ip), vehicle: saline); 109 % of control (dose: 2.5 mg/kg/injection, schedule: Q01DX001 (ip), vehicle: saline); 116 % of control (dose: 3.65 mg/kg/injection, schedule: Q01DX009 (ip), vehicle: saline with Tween-80); 109 % of control (dose: 3.65 mg/kg/injection, schedule: Q04DX003 (ip), vehicle: saline); 100 % of control (dose: 5.0 mg/kg/injection, schedule: Q01DX001 (ip), vehicle: saline). Besides, the T/C is, setting by setting: (dose: 7.3 mg/kg/injection, schedule: Q01DX009 (ip), vehicle: saline with Tween-80) 104 % of control; (dose: 7.3 mg/kg/injection, schedule: Q04DX003 (ip), vehicle: saline) 104 % of control; (dose: 10.0 mg/kg/injection, schedule: Q01DX001 (ip), vehicle: saline) 109 % of control; (dose: 10.0 mg/kg/injection, schedule: Q04DX003 (ip), vehicle: saline) 100 % of control.

For `NCCS(=O)(=O)O`, the T/C by setting is: under setting [3], 90 % of control and 100 % of control; (dose: 17.5 mg/kg/injection, schedule: Q01DX009 (ip), vehicle: saline) 123 % of control; under setting [4], 110 % of control; (dose: 35.0 mg/kg/injection, schedule: Q01DX009 (ip), vehicle: saline) 123 % of control; under setting [5], 100 % of control (2×) and 113 % of control; (dose: 70.0 mg/kg/injection, schedule: Q01DX009 (ip), vehicle: saline) 107 % of control. Besides, the T/C runs as follows: under setting [6], 86 % of control and 94 % of control; under setting [7], 100 % of control; under setting [8], 95 % of control and 105 % of control.

Turning to `COC1/C=C/O[C@@]2(C)Oc3c(C)c(O)c4c(O)c(cc(O)c4c3C2=O)NC(=O)/C(C)=C\C=C\[C@H](C)C(O)[C@@H](C)[C@@H](O)[C@@H](C)[C@H](OC(C)=O)[C@@H]1C` (stereo partly drawn), the T/C was 123 % of control under setting [6], 114 % of control under setting [7] and 119 % of control under setting [8].

As for `CCCCNC(c1ccc(C=NC(CC)(CO)CO)cc1)C(Br)(Br)Br` (stereo not drawn), the T/C runs as follows: (dose: 50.0 mg/kg/injection, schedule: Q04DX003 (ip), vehicle: other) 100 % of control; (dose: 100.0 mg/kg/injection, schedule: Q04DX003 (ip), vehicle: other) 100 % of control; (dose: 200.0 mg/kg/injection, schedule: Q04DX003 (ip), vehicle: other) 104 % of control.

`Cc1ccc(S(=O)(=O)OCC(CO)(COS(=O)(=O)c2ccc(C)cc2)[N+](=O)[O-])cc1`: the T/C (dose: 100.0 mg/kg/injection, schedule: Q01DX009 (ip), vehicle: Klucel (hydroxypropylcellulose) (HPC)) is 100 % of control; the T/C under setting [1] is 113 % of control; the T/C (dose: 200.0 mg/kg/injection, schedule: Q01DX009 (ip), vehicle: Klucel (hydroxypropylcellulose) (HPC)) is 95 % of control; the T/C (dose: 200.0 mg/kg/injection, schedule: Q04DX003 (ip), vehicle: Klucel (hydroxypropylcellulose) (HPC)) is 121 % of control; the T/C under setting [2] is 121 % of control.

Take `CCOc1ccccc1NC(=O)c1ccc(Cl)cc1`: the T/C was 90 % of control (dose: 100.0 mg/kg/injection, schedule: Q01DX001 (ip), vehicle: saline with Tween-80); 90 % of control (dose: 200.0 mg/kg/injection, schedule: Q01DX001 (ip), vehicle: saline with Tween-80); 95 % of control (dose: 400.0 mg/kg/injection, schedule: Q01DX001 (ip), vehicle: saline with Tween-80).

As for `O=C(C[n+]1ccc2ccccc2c1)c1ccccc1`, the T/C runs as follows: (dose: 12.5 mg/kg/injection, schedule: Q04DX003 (ip), vehicle: saline with Tween-80) 100 % of control; under setting [9], 100 % of control; under setting [10], 100 % of control.

Turning to `C=CCNC(=O)C12CC3CC(CC(C3)C1)C2`, the T/C runs as follows: (dose: 50.0 mg/kg/injection, schedule: Q01DX009 (ip), vehicle: saline with Tween-80) 93 % of control; (dose: 100.0 mg/kg/injection, schedule: Q01DX009 (ip), vehicle: saline with Tween-80) 99 % of control; (dose: 200.0 mg/kg/injection, schedule: Q01DX009 (ip), vehicle: saline with Tween-80) 103 % of control.

In the case of `C/C(Cc1ccccc1)=N/N(C)C`, the T/C runs as follows: under setting [9], 108 % of control; under setting [10], 100 % of control; (dose: 100.0 mg/kg/injection, schedule: Q04DX003 (ip), vehicle: saline with Tween-80) 104 % of control.

In the case of `CC(=O)Nc1ccc(S(=O)(=O)F)cc1[N+](=O)[O-]`, the T/C was 100 % of control (dose: 25.0 mg/kg/injection, schedule: Q04DX003 (ip), vehicle: saline); 100 % of control (dose: 50.0 mg/kg/injection, schedule: Q04DX003 (ip), vehicle: saline); 115 % of control (dose: 100.0 mg/kg/injection, schedule: Q04DX003 (ip), vehicle: saline).

Regarding `ClCC(Cl)CN1CCCCC1` (stereo not drawn), the T/C by setting is: under setting [3], 90 % of control; under setting [4], 86 % of control; under setting [5], 104 % of control.
